Results reported in ChEMBL document CHEMBL1201862, “PubChem BioAssay data set” (2004).
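96-well plates; 48 h exposure; 5 concentrations. Endpoints by linear interpolation between flanking doses. Not reached: highest tested concentration assigned. GI50 marks 50% less growth.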 Active and inactive are the calls of the source. Cut-off read from the data, not from the text of the source: active = GI50 up to about 1.1 µM and inactive = higher.

How the values were obtained:
Experiment in all cases: NCI tumour cell line growth inhibition, 48 h
SNB-19 = system: SNB-19
HCT-116 = system: HCT-116
UACC-257 = system: UACC-257
HOP-92 = system: HOP-92
SK-MEL-5 = system: SK-MEL-5
MDA-MB-231 = system: MDA-MB-231
ACHN = system: ACHN
SK-MEL-2 = system: SK-MEL-2
CAKI-1 = system: CAKI-1
KM12 = system: KM12
PC-3 = system: PC-3
OVCAR-3 = system: OVCAR-3
MDA-MB-435 = system: MDA-MB-435
RPMI-8226 = system: RPMI-8226
SF-268 = system: SF-268
COLO 205 = system: COLO 205
SK-MEL-28 = system: SK-MEL-28
SW-620 = system: SW-620
K562 = system: K562
HL-60 = system: HL-60

Measured: GI50

C=CCOC(=O)CCCCCCCCCCCCCCCOC(=O)C1=C(CCC[C@@H](C)O[Si](C)(C)C(C)(C)C)NC(=O)N2[C@H](CC3(CC/C=C\[C@H](CC)O[Si](C(C)C)(C(C)C)C(C)C)OCCO3)CC[C@H]12
inactive: SNB-19 > 100 µM | HCT-116 > 100 µM | UACC-257 > 100 µM | HOP-92 18.9 µM | SK-MEL-5 > 100 µM | MDA-MB-231 > 100 µM | ACHN > 100 µM | SK-MEL-2 > 100 µM | CAKI-1 > 100 µM | KM12 > 100 µM | PC-3 > 100 µM | OVCAR-3 > 100 µM | MDA-MB-435 > 100 µM | RPMI-8226 > 100 µM | SF-268 > 100 µM | COLO 205 > 100 µM | SK-MEL-28 > 100 µM

Cc1sc2c(c1C)C(=O)c1cccn1-2
inactive: SNB-19 > 100 µM | SW-620 72.6 µM | HCT-116 61.2 µM | UACC-257 > 100 µM | SK-MEL-5 > 100 µM | MDA-MB-231 96.4 µM | ACHN > 100 µM | SK-MEL-2 > 100 µM | CAKI-1 85.7 µM | KM12 > 100 µM | PC-3 65.3 µM | OVCAR-3 > 100 µM | MDA-MB-435 56.6 µM | K562 38.8 µM | RPMI-8226 50.7 µM | SF-268 > 100 µM | COLO 205 > 100 µM | SK-MEL-28 > 100 µM

COc1cc(O)c2c(=O)c(OC)c(-c3ccc(OC)c(O)c3)oc2c1 [AYANIN]
inactive: SNB-19 > 100 µM | SW-620 > 100 µM | HCT-116 32.1 µM | HL-60 > 100 µM | UACC-257 85.7 µM | SK-MEL-5 20.4 µM | MDA-MB-231 14.8 µM | ACHN 33.1 µM | SK-MEL-2 > 100 µM | CAKI-1 6.71 µM | KM12 35.7 µM | PC-3 30.8 µM | OVCAR-3 63.8 µM | MDA-MB-435 34.7 µM | K562 60.5 µM | RPMI-8226 33.1 µM | SF-268 33.2 µM | COLO 205 76.9 µM | SK-MEL-28 > 100 µM

NC1=NC(c2ccc(Cl)cc2)N(c2ccc(S(N)(=O)=O)cc2)C(N)=N1 (configuration not stated)
inactive: SNB-19 > 100 µM | SW-620 > 100 µM | HCT-116 > 100 µM | UACC-257 > 100 µM | HOP-92 > 100 µM | SK-MEL-5 > 100 µM | MDA-MB-231 > 100 µM | ACHN > 100 µM | SK-MEL-2 > 100 µM | CAKI-1 > 100 µM | KM12 > 100 µM | PC-3 > 100 µM | OVCAR-3 > 100 µM | MDA-MB-435 > 100 µM | K562 > 100 µM | RPMI-8226 > 100 µM | SF-268 > 100 µM | COLO 205 > 100 µM | SK-MEL-28 > 100 µM

Cc1cc(-c2nc3ccccc3s2)ccc1NC(=O)[C@H](C)N
inactive: SNB-19 15.1 µM | SW-620 14.8 µM | HCT-116 10.9 µM | UACC-257 16.9 µM | HOP-92 15.7 µM | SK-MEL-5 13 µM | MDA-MB-231 14.3 µM | ACHN 13.6 µM | SK-MEL-2 17.5 µM | CAKI-1 11.3 µM | KM12 14.4 µM | PC-3 13.1 µM | OVCAR-3 11.4 µM | MDA-MB-435 7.18 µM | K562 6.95 µM | SF-268 18.3 µM | COLO 205 13.2 µM | SK-MEL-28 15.7 µM

CSc1nc(Cl)c2c(n1)Sc1nc3ccccc3n1C2O (configuration not stated)
inactive: SNB-19 14.4 µM | SW-620 3.52 µM | HCT-116 2.48 µM | UACC-257 13.5 µM | HOP-92 5.31 µM | SK-MEL-5 2.5 µM | MDA-MB-231 4.88 µM | ACHN 5.89 µM | SK-MEL-2 4.38 µM | CAKI-1 1.85 µM | KM12 3.44 µM | PC-3 4.29 µM | OVCAR-3 5.3 µM | MDA-MB-435 3.63 µM | K562 3.71 µM | RPMI-8226 2.85 µM | SF-268 5.25 µM | COLO 205 2.64 µM | SK-MEL-28 6.79 µM

COc1ccc2c3c1OC1C34CCN(C)C(C2)C4=CC(I)C1(OC)OC (configuration not stated)
inactive: SNB-19 16.2 µM | SW-620 2.68 µM | HCT-116 3.93 µM | UACC-257 13.2 µM | HOP-92 11.4 µM | SK-MEL-5 12 µM | MDA-MB-231 18.5 µM | ACHN 11.3 µM | SK-MEL-2 15.6 µM | CAKI-1 12.9 µM | KM12 14.4 µM | PC-3 10.2 µM | OVCAR-3 5.87 µM | MDA-MB-435 4.12 µM | K562 2.77 µM | RPMI-8226 2.71 µM | SF-268 16.7 µM | COLO 205 13.9 µM | SK-MEL-28 12.1 µM

Fc1cccc2nc(-c3ccccc3)cc(OCc3ccccc3)c12
inactive: SNB-19 > 100 µM | SW-620 > 100 µM | HCT-116 > 100 µM | HL-60 > 100 µM | UACC-257 > 100 µM | SK-MEL-5 28.4 µM | MDA-MB-231 > 100 µM | ACHN > 100 µM | SK-MEL-2 > 100 µM | KM12 > 100 µM | PC-3 > 100 µM | OVCAR-3 > 100 µM | MDA-MB-435 > 100 µM | K562 > 100 µM | RPMI-8226 > 100 µM | SF-268 > 100 µM | COLO 205 > 100 µM | SK-MEL-28 > 100 µM

O=C([O-])Cc1ccccc1.[Na+] [SODIUM PHENYLACETATE]
inactive: SNB-19 > 2000 µM | SW-620 804 µM | UACC-257 > 2000 µM | HOP-92 359 µM | SK-MEL-5 869 µM | MDA-MB-231 174 µM | ACHN 1180 µM | SK-MEL-2 > 2000 µM | KM12 773 µM | PC-3 > 2000 µM | OVCAR-3 550 µM | MDA-MB-435 1000 µM | K562 284 µM | RPMI-8226 413 µM | SF-268 1340 µM | COLO 205 1340 µM | SK-MEL-28 800 µM

COC(=O)Cc1c(C2C(CC(=O)OC)c3ccccc3N2C2OC(CO)C(O)C(O)C2O)[nH]c2ccccc12 (configuration not stated)
inactive: SNB-19 > 100 µM | SW-620 > 100 µM | HCT-116 > 100 µM | UACC-257 > 100 µM | HOP-92 > 100 µM | SK-MEL-5 > 100 µM | MDA-MB-231 > 100 µM | SK-MEL-2 > 100 µM | CAKI-1 > 100 µM | KM12 > 100 µM | PC-3 > 100 µM | OVCAR-3 > 100 µM | MDA-MB-435 > 100 µM | RPMI-8226 > 100 µM | SF-268 > 100 µM | COLO 205 > 100 µM | SK-MEL-28 > 100 µM

CCCCCCCCCCCCCCCCCCNc1nc(=O)n(C2CC(O)C(COP(=O)(O)OCC3OC(n4ccc(N)nc4=O)C(O)C3O)O2)cc1F (configuration not stated)
inactive: SNB-19 10.6 µM | SW-620 > 100 µM | HCT-116 9.35 µM | UACC-257 > 100 µM | HOP-92 31.1 µM | SK-MEL-5 > 100 µM | MDA-MB-231 27.7 µM | ACHN 18.7 µM | SK-MEL-2 > 100 µM | CAKI-1 92.5 µM | KM12 > 100 µM | PC-3 28.6 µM | OVCAR-3 > 100 µM | MDA-MB-435 > 100 µM | K562 > 100 µM | RPMI-8226 > 100 µM | SF-268 32.1 µM | COLO 205 26.9 µM | SK-MEL-28 > 100 µM

FC(F)(Sc1ncccn1)c1nc2ccccc2o1
inactive: SW-620 > 100 µM | HCT-116 84.3 µM | UACC-257 > 100 µM | HOP-92 56.8 µM | SK-MEL-5 > 100 µM | MDA-MB-231 > 100 µM | ACHN > 100 µM | SK-MEL-2 > 100 µM | CAKI-1 > 100 µM | KM12 > 100 µM | PC-3 89.1 µM | OVCAR-3 > 100 µM | MDA-MB-435 99.1 µM | K562 77.4 µM | RPMI-8226 > 100 µM | SF-268 > 100 µM | COLO 205 > 100 µM | SK-MEL-28 > 100 µM

CC1=CC[C@H](C[C@H](C#CCCCC2OCCO2)O[Si](C(C)C)(C(C)C)C(C)C)C(=O)CC1
inactive: SNB-19 > 100 µM | SW-620 > 100 µM | HCT-116 > 100 µM | UACC-257 > 100 µM | HOP-92 > 100 µM | SK-MEL-5 > 100 µM | MDA-MB-231 > 100 µM | ACHN > 100 µM | SK-MEL-2 > 100 µM | CAKI-1 > 100 µM | KM12 > 100 µM | PC-3 > 100 µM | OVCAR-3 > 100 µM | MDA-MB-435 > 100 µM | K562 > 100 µM | RPMI-8226 > 100 µM | SF-268 > 100 µM | COLO 205 > 100 µM | SK-MEL-28 > 100 µM

CC12CCC(C(=O)OC1=O)C2(C)C (configuration not stated)
inactive: SNB-19 > 100 µM | SW-620 > 100 µM | HCT-116 > 100 µM | HL-60 32.1 µM | UACC-257 8.81 µM | MDA-MB-231 > 100 µM | ACHN > 100 µM | SK-MEL-2 28.7 µM | KM12 > 100 µM | PC-3 > 100 µM | OVCAR-3 > 100 µM | MDA-MB-435 > 100 µM | K562 > 100 µM | RPMI-8226 > 100 µM | SF-268 > 100 µM | COLO 205 > 100 µM | SK-MEL-28 > 100 µM

Cc1ccc(NC(=O)CC(=O)n2nc(C)c(/N=N/c3ccc(S(=O)(=O)CCOS(=O)(=O)O)cc3)c2C)cc1
inactive: SNB-19 > 100 µM | SW-620 > 100 µM | HCT-116 > 100 µM | HL-60 > 100 µM | UACC-257 80 µM | SK-MEL-5 > 100 µM | MDA-MB-231 > 100 µM | ACHN > 100 µM | SK-MEL-2 > 100 µM | KM12 > 100 µM | PC-3 > 100 µM | OVCAR-3 > 100 µM | MDA-MB-435 > 100 µM | K562 > 100 µM | RPMI-8226 > 100 µM | SF-268 > 100 µM | COLO 205 > 100 µM | SK-MEL-28 > 100 µM
